One test concerns the target human orexin-2 receptor (Homo sapiens (Human), UniProt O43614). The experiment in a line: FLIPR Ca2+ Flux Assay, hOX2R. It counts as cell-based. To be noted: CHO cells expressing human orexin-2 receptor; agonist 70 pM Ala-6,12 human orexin-A. Here is the method: (§1) The utility of the compounds in accordance with the present invention as orexin receptor OX1R and/or OX2R antagonists may be readily determined without undue experimentation by methodology well known in the art, including the “FLIPR Ca^2+ Flux Assay” (Okumura et al., Biochem. Biophys. Res. Comm. 280:976-981, 2001). In a typical experiment the OX1 and OX2 receptor antagonistic activity of the compounds of the present invention was determined in accordance with the following experimental method. For intracellular calcium measurements, Chinese hamster ovary (CHO) cells expressing the rat or human orexin-1 receptor or the human orexin-2 receptor, are grown in Iscove's modified DMEM containing 2 mM L-glutamine, […], 1% hypoxanthine-thymidine supplement, 100 U/ml penicillin, 100 μg/ml streptomycin and 10% heat-inactivated fetal calf serum (FCS). The cells are seeded at 20,000 cells/well into Becton-Dickinson black 384-well clear bottom sterile plates coated with poly-D-lysine. All reagents were from GIBCO-Invitrogen Corp. The seeded plates are incubated overnight at 37° C. and 5% CO2. Ala-6,12 human orexin-A as the agonist is prepared as a 1 mM stock solution in 1% bovine serum albumin (BSA) and diluted in assay buffer (HBSS containing 20 mM HEPES, 0.1% BSA and 2.5 mM probenecid, pH7.4) for use in the assay at a final concentration of 70 pM. Test compounds are prepared as 10 mM stock solution in DMSO, then diluted in 384-well plates, first in DMSO, then assay buffer. On the day of the assay, cells are washed 3 times with 100 μl assay buffer and then incubated for 60 min (37° C., 5% CO2) in 60 μl assay buffer containing 1 μM Fluo-4AM ester, 0.02% pluronic acid, and 1% BSA. The dye loading solution is then aspirated and cells are washed 3 times with 100 μl assay buffer. 30 μl of that same buffer is left in each well. Within the Fluorescent Imaging Plate Reader (FLIPR, Molecular Devices), test compounds are added to the plate in a volume of 25 μl, incubated for 5 min and finally 25 μl of agonist is added. Fluorescence is measured for each well at 1 second intervals for 5 minutes and the height of each fluorescence peak is compared to the height of the fluorescence peak induced by 70 pM Ala-6,12 orexin-A with buffer in place of antagonist. For each antagonist, IC50 value (the concentration of compound needed to inhibit 50% of the agonist response) is determined. Alternatively, compound potency can be assessed by a radioligand binding assay (described in Bergman et. al. Bioorg. Med. Chem. Lett. 2008, 18, 1425-1430) in which the inhibition constant (Ki) is determined in membranes prepared from CHO cells expressing either the OX1 or OX2 receptor. The intrinsic orexin receptor antagonist activity of a compound which may be used in the present invention may be determined by these assays.
A general note: Calcium flux is commonly read through the fluorescence of an indicator in the cells.

In a further test the target is human orexin-1 receptor (Homo sapiens (Human), UniProt O43613). The experiment in a line: FLIPR Ca2+ Flux Assay, hOX1R. In kind it is cell-based. To be noted: CHO cells expressing human orexin-1 receptor; agonist 70 pM Ala-6,12 human orexin-A. Here is the method: as §1

A value given as a limit tells only on which side of the number the result lay.

Chain of human orexin-1 receptor (O43613 whole entry): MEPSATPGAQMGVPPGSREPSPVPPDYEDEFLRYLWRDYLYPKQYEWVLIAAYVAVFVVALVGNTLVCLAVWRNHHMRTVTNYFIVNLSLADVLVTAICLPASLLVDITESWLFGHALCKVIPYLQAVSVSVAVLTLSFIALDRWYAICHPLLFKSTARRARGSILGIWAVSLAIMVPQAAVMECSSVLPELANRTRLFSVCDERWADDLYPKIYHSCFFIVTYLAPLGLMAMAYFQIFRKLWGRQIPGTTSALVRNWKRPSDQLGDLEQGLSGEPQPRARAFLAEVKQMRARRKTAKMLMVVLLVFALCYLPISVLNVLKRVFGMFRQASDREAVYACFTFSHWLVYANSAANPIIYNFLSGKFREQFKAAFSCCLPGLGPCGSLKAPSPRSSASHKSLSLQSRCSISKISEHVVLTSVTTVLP
Chain of human orexin-2 receptor (O43614 whole entry): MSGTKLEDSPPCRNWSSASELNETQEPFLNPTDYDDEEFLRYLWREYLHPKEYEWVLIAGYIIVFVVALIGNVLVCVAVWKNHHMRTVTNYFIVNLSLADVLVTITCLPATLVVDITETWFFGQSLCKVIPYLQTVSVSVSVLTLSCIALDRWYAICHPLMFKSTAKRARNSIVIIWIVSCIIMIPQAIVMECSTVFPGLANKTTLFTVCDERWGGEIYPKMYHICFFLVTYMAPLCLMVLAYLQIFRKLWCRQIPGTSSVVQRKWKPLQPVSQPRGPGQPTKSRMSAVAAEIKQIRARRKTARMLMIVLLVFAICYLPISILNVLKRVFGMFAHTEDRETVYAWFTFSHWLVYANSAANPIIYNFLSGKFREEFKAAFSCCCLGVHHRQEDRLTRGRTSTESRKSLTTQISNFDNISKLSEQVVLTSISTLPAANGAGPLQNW

With `Cc1oc(CCN(C(=O)c2ccccc2-n2nccn2)C2CCC2)nc1C(C)(C)O` [Example 32, N-Cyclobutyl-N-(2-(4-(2-hydroxypropan-2-yl)-5-methyloxazol-2-yl)ethyl)-2-(2H-1,2,3-triazol-2-yl)benzamide], the IC50 at human orexin-2 receptor is 38 nM; on human orexin-1 receptor it was 8180 nM.

In the case of `CCN(CCc1nc(C(C)(C)O)c(C)o1)C(=O)c1ccsc1-n1nccn1` [Example 12, N-Ethyl-N-{2-[4-(1-hydroxy-1-methylethyl)-5-methyl-1,3-oxazol-2-yl]ethyl}-2-(2H-1,2,3-triazol-2-yl)thiophene-3-carboxamide], the IC50 at human orexin-2 receptor was 63 nM; at human orexin-1 receptor, more than 10000 nM.

`CCN(CCc1nc(C(C)(C)O)c(C)o1)C(=O)c1ccccc1C(=O)OC` [Example 16, Methyl 2-(ethyl{2-[4-(1-hydroxy-1-methylethyl)-5-methyl-1,3-oxazol-2-yl]ethyl}carbamoyl)benzoate]: the IC50 at human orexin-2 receptor was 630 nM; at human orexin-1 receptor, more than 10000 nM.

For `Cc1oc(CCN(CC2CC2)C(=O)c2ccccc2-n2nccn2)nc1C(C)(C)O` [Example 23, N-(Cyclopropylmethyl)-N-{2-[4-(1-hydroxy-1-methylethyl)-5-methyl-1,3-oxazol-2-yl]ethyl}-2-(2H-1,2,3-triazol-2-yl)benzamide], the IC50 on human orexin-2 receptor worked out at 21 nM; at human orexin-1 receptor, 2840 nM.

`CCN(CCc1nc(C(C)(C)O)c(C)o1)C(=O)c1ccccc1-n1ncnn1` [Example 9, N-ethyl-N-{2-[4-(1-hydroxy-1-methylethyl)-5-methyl-1,3-oxazol-2-yl]ethyl}-2-(2H-tetrazol-2-yl)benzamide]: the IC50 is 491 nM on human orexin-2 receptor and more than 10000 nM at human orexin-1 receptor.

Take `CCN(CCc1nc(C(C)(C)O)c(C)o1)C(=O)c1ccccc1-c1nc(C)no1` [Example 10c, N-ethyl-N-{2-[4-(1-hydroxy-1-methylethyl)-5-methyl-1,3-oxazol-2-yl]ethyl}-2-(3-methyl-1,2,4-oxadiazol-5-yl)benzamide]: the IC50 on human orexin-2 receptor was 212 nM; at human orexin-1 receptor it was more than 10000 nM.

Consider `Cc1oc(CCN(C(=O)c2ccccc2-n2nccn2)C2CC2)nc1C(C)(C)O` [Example 31, N-Cyclopropyl-N-(2-(4-(2-hydroxypropan-2-yl)-5-methyloxazol-2-yl)ethyl)-2-(2H-1,2,3-triazol-2-yl)benzamide], for which the IC50 on human orexin-2 receptor was determined as 42 nM; at human orexin-1 receptor it was 7590 nM.

On to `CCN(CCc1nc(C(C)(C)O)c(C)o1)C(=O)c1ccccc1-c1ccccc1` [Example 1, N-Ethyl-N-(2-(4-(2-hydroxypropan-2-yl)-5-methyloxazol-2-yl)ethyl)-[1,1′-biphenyl]-2-carboxamide], for which the IC50 at human orexin-2 receptor turned out to be 29 nM; at human orexin-1 receptor, 1830 nM.

As to `CCN(CCc1nc(C(C)(C)O)c(C)o1)C(=O)c1cccc(F)c1-n1nccn1` [Example 3, N-Ethyl-3-fluoro-N-{2-[4-(1-hydroxy-1-methylethyl)-5-methyl-1,3-oxazol-2-yl]ethyl}-2-(2H-1,2,3-triazol-2-yl)benzamide], the IC50 at human orexin-2 receptor is 44 nM; at human orexin-1 receptor it was more than 10000 nM.

For `CCN(CCc1nc(C(C)(C)O)c(C)o1)C(=O)c1ccc(OC)cc1-n1nccn1` [Example 8, N-Ethyl-N-{2-[4-(1-hydroxy-1-methylethyl)-5-methyl-1,3-oxazol-2-yl]ethyl}-4-methoxy-2-(2H-1,2,3-triazol-2-yl)benzamide], the IC50 is 82 nM on human orexin-2 receptor and more than 10000 nM on human orexin-1 receptor.

Take `CCN(CCc1nc(C(C)(O)C(C)C)c(C)o1)C(=O)c1ccccc1-n1nccn1` (stereo not shown) [Example 20, N-Ethyl-N-{2-[4-(1-hydroxy-1,2-dimethylpropyl)-5-methyl-1,3-oxazol-2-yl]ethyl}-2-(2H-1,2,3-triazol-2-yl)benzamide]: the IC50 at human orexin-2 receptor was 19 nM; at human orexin-1 receptor, 2670 nM.

The term IC50 denotes the concentration that gives 50% inhibition. Read a high IC50 as lower potency.

The values above are taken from patent US10435398B2, “Oxazole orexin receptor antagonists” (MERCK SHARP & DOHME CORP., priority 2014, dated 2019).
